Measured values as given in PubChem BioAssay AID248 (DTP/NCI, 2004).
Toxic doses and inconclusive results are not listed. Rule as the data show it: active = T/C of 150% or more; inactive = T/C below 125%.

System: L1210 leukemia ip in BDF1 mice, survival T/C
Assay: NCI In Vivo Anticancer Drug Screen. Data for tumor model L1210 Leukemia (intraperitoneal) in B6D2F1 (BDF1) mice
Conditions: endpoint: mean survival time, higher = longer survival
Method in brief: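 Tumor was transplanted into mice, which were then dosed with test compound or vehicle alone. Survival was recorded for each group, and the treated figure was expressed relative to the control figure.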

[1] = dose: 100.0 mg/kg/injection, schedule: Q04DX003 (ip), vehicle: saline
[2] = dose: 200.0 mg/kg/injection, schedule: Q04DX003 (ip), vehicle: saline
[3] = dose: 400.0 mg/kg/injection, schedule: Q04DX003 (ip), vehicle: saline
[4] = dose: 100.0 mg/kg/injection, schedule: Q01DX009 (ip), vehicle: Klucel (hydroxypropylcellulose) (HPC)
[5] = dose: 200.0 mg/kg/injection, schedule: Q01DX009 (ip), vehicle: Klucel (hydroxypropylcellulose) (HPC)
[6] = dose: 100.0 mg/kg/injection, schedule: Q04DX003 (ip), vehicle: saline with Tween-80
[7] = dose: 200.0 mg/kg/injection, schedule: Q04DX003 (ip), vehicle: saline with Tween-80
[8] = dose: 75.0 mg/kg/injection, schedule: Q01DX009 (ip), vehicle: saline
[9] = dose: 100.0 mg/kg/injection, schedule: Q01DX009 (ip), vehicle: saline with Tween-80
[10] = dose: 200.0 mg/kg/injection, schedule: Q01DX009 (ip), vehicle: saline with Tween-80
[11] = dose: 75.0 mg/kg/injection, schedule: Q01DX001 (ip), vehicle: saline
[12] = dose: 150.0 mg/kg/injection, schedule: Q01DX001 (ip), vehicle: saline
[13] = dose: 300.0 mg/kg/injection, schedule: Q01DX001 (ip), vehicle: saline
[14] = dose: 50.0 mg/kg/injection, schedule: Q04DX003 (ip), vehicle: Klucel (hydroxypropylcellulose) (HPC)
[15] = dose: 100.0 mg/kg/injection, schedule: Q01DX001 (ip), vehicle: carboxymethylcellulose (CMC)
[16] = dose: 100.0 mg/kg/injection, schedule: Q04DX003 (ip), vehicle: Klucel (hydroxypropylcellulose) (HPC)
[17] = dose: 200.0 mg/kg/injection, schedule: Q01DX001 (ip), vehicle: carboxymethylcellulose (CMC)
[18] = dose: 200.0 mg/kg/injection, schedule: Q04DX003 (ip), vehicle: Klucel (hydroxypropylcellulose) (HPC)
[19] = dose: 400.0 mg/kg/injection, schedule: Q01DX001 (ip), vehicle: carboxymethylcellulose (CMC)

Measured: T/C

CC1=C(CCCO)/C(=N/Nc2ccc([N+](=O)[O-])cc2[N+](=O)[O-])CCC1
inactive: dose: 25.0 mg/kg/injection, schedule: Q04DX002 (ip), vehicle: saline with Tween-80 97 % of control | dose: 100.0 mg/kg/injection, schedule: Q01DX001 (ip), vehicle: saline with Tween-80 105 % of control | dose: 200.0 mg/kg/injection, schedule: Q01DX001 (ip), vehicle: saline with Tween-80 87 % of control | dose: 400.0 mg/kg/injection, schedule: Q01DX001 (ip), vehicle: saline with Tween-80 92 % of control

O=C(NCC[N+](=O)[O-])c1ccccc1
inactive: dose: 50.0 mg/kg/injection, schedule: Q01DX009 (ip), vehicle: saline 97 % of control | dose: 100.0 mg/kg/injection, schedule: Q01DX009 (ip), vehicle: saline 93 % of control | [1] 92 % of control | dose: 200.0 mg/kg/injection, schedule: Q01DX009 (ip), vehicle: saline 95 % of control | [2] 96 % of control | [3] 100 % of control

CCS(=O)(=O)/C=C(\C(=O)c1ccccc1)c1ccccc1
inactive: [4] 98 % of control | [5] 97 % of control | dose: 400.0 mg/kg/injection, schedule: Q01DX009 (ip), vehicle: Klucel (hydroxypropylcellulose) (HPC) 93 % of control

COC(=O)CCC(C(=O)CN1C(=O)c2ccccc2C1=O)N1C(=O)c2ccccc2C1=O (stereo not drawn)
inactive: [6] 96 % of control | [7] 92 % of control | dose: 400.0 mg/kg/injection, schedule: Q04DX003 (ip), vehicle: saline with Tween-80 92 % of control

CN(C)CCC[N+]1([O-])c2ccccc2CCc2ccccc21
inactive: dose: 9.37 mg/kg/injection, schedule: Q01DX009 (ip), vehicle: saline 102 % of control | dose: 18.75 mg/kg/injection, schedule: Q01DX009 (ip), vehicle: saline 108 % of control | dose: 18.75 mg/kg/injection, schedule: Q04DX003 (ip), vehicle: saline 102 % of control | dose: 37.5 mg/kg/injection, schedule: Q01DX009 (ip), vehicle: saline 97 % of control | dose: 37.5 mg/kg/injection, schedule: Q04DX003 (ip), vehicle: saline 96 % of control | [8] 102 % of control | dose: 75.0 mg/kg/injection, schedule: Q04DX003 (ip), vehicle: saline 96 % of control | dose: 150.0 mg/kg/injection, schedule: Q04DX003 (ip), vehicle: saline 88 % of control

Nc1cc(Cl)nc(-c2ccccc2)n1
inactive: dose: 50.0 mg/kg/injection, schedule: Q01DX009 (ip), vehicle: Klucel (hydroxypropylcellulose) (HPC) 98 % of control | [4] 98 % of control | [5] 102 % of control

O=c1oc(/C=C/c2ccccc2)nc2cc(Cl)ccc12
inactive: [9] 103 % of control | [10] 101 % of control | dose: 400.0 mg/kg/injection, schedule: Q01DX009 (ip), vehicle: saline with Tween-80 96 % of control

N=C(N)N/N=C(/c1ccccc1)c1ccc(Oc2ccc(/C(=N/NC(=N)N)c3ccccc3)cc2)cc1
inactive: dose: 60.0 mg/kg/injection, schedule: Q01DX Z (oral), vehicle: methylcellulose (MC) 95 % of control | dose: 240.0 mg/kg/injection, schedule: Q01DX Z (ip), vehicle: methylcellulose (MC) 101 % of control | dose: 240.0 mg/kg/injection, schedule: Q01DX Z (oral), vehicle: methylcellulose (MC) 97 % of control | dose: 360.0 mg/kg/injection, schedule: Q01DX Z (ip), vehicle: methylcellulose (MC) 102 % of control | dose: 480.0 mg/kg/injection, schedule: Q01DX Z (ip), vehicle: methylcellulose (MC) 101 % of control | dose: 480.0 mg/kg/injection, schedule: Q01DX Z (oral), vehicle: methylcellulose (MC) 111 % of control

CCSCCCCO
inactive: [11] 101 % of control | [8] 102 % of control | [12] 101 % of control | dose: 150.0 mg/kg/injection, schedule: Q01DX009 (ip), vehicle: saline 100 % of control | [13] 97 % of control

NC(CSS(=O)(=O)O)=NCCCCOc1ccccc1
inactive: dose: 6.25 mg/kg/injection, schedule: Q04DX002 (ip), vehicle: Klucel (hydroxypropylcellulose) (HPC) 111 % of control | dose: 12.5 mg/kg/injection, schedule: Q04DX002 (ip), vehicle: Klucel (hydroxypropylcellulose) (HPC) 89 % of control | dose: 25.0 mg/kg/injection, schedule: Q04DX002 (ip), vehicle: Klucel (hydroxypropylcellulose) (HPC) 108 % of control | dose: 100.0 mg/kg/injection, schedule: Q04DX002 (ip), vehicle: Klucel (hydroxypropylcellulose) (HPC) 97 % of control

O=C(/C=N/O)Nc1cc(Cl)c(Cl)cc1Cl
inactive: dose: 50.0 mg/kg/injection, schedule: Q01DX009 (ip), vehicle: saline with Tween-80 97 % of control | [9] 94 % of control | [6] 98 % of control | [10] 94 % of control | [7] 103 % of control

Nc1cc(F)c2c(c1)C(=O)c1cc(F)ccc1-2
inactive: dose: 50.0 mg/kg/injection, schedule: Q01DX001 (ip), vehicle: carboxymethylcellulose (CMC) 93 % of control | [14] 96 % of control | [15] 95 % of control | [16] 96 % of control | [17] 95 % of control | [18] 98 % of control | [19] 95 % of control

COc1cccc(C2Nc3cc(Cl)ccc3S2)c1O (stereo not drawn)
inactive: [11] 105 % of control | [12] 109 % of control | [13] 105 % of control

CC1(C)CNC(C(=O)O)C1 (stereo not drawn)
inactive: [9] 100 % of control | [1] 96 % of control | [10] 96 % of control | [2] 95 % of control | [3] 98 % of control

CCCCNC(=O)c1ncccc1C(=O)O
inactive: [15] 111 % of control | dose: 100.0 mg/kg/injection, schedule: Q04DX003 (ip), vehicle: carboxymethylcellulose (CMC) 102 % of control | [17] 103 % of control | dose: 200.0 mg/kg/injection, schedule: Q04DX003 (ip), vehicle: carboxymethylcellulose (CMC) 95 % of control | [19] 97 % of control

N#CCc1ccc([N+](=O)[O-])cc1
inactive: dose: 12.5 mg/kg/injection, schedule: Q01DX009 (ip), vehicle: Klucel (hydroxypropylcellulose) (HPC) 102 % of control | dose: 12.5 mg/kg/injection, schedule: Q04DX003 (ip), vehicle: Klucel (hydroxypropylcellulose) (HPC) 98 % of control | dose: 25.0 mg/kg/injection, schedule: Q01DX009 (ip), vehicle: Klucel (hydroxypropylcellulose) (HPC) 106 % of control | dose: 25.0 mg/kg/injection, schedule: Q04DX003 (ip), vehicle: Klucel (hydroxypropylcellulose) (HPC) 106 % of control | [14] 98 % of control

Cc1cc(NCCCN(C)C)c2c(c1N)C(=O)c1ccccc1C2=O
inactive: [16] 88 % of control | [18] 92 % of control | dose: 400.0 mg/kg/injection, schedule: Q04DX003 (ip), vehicle: Klucel (hydroxypropylcellulose) (HPC) 92 % of control
